Tests used:
human ROCKα/ROCKII mix = molecular target: T1, human ROCKα/ROCKII mix (Homo sapiens, UniProt O75116); assay: Biochemical assay for ROCK (fluorescence polarization, ROCK IMAP Kit); conditions: compounds of Formula XIV, Table 3
T1 construct: purchased Upstate Biotechnology 14-451

PKC epsilon = molecular target: T2, PKC epsilon (Homo sapiens, UniProt Q02156); assay: Biochemical assay for PKC epsilon (fluorescence polarization, Protein Kinase C Assay Kit, Red); conditions: compounds of Formula XIV, Table 3; read-out: IC50 μM PKCε
T2 construct: purchased Invitrogen P2282
T2 sequence (Q02156 1-737): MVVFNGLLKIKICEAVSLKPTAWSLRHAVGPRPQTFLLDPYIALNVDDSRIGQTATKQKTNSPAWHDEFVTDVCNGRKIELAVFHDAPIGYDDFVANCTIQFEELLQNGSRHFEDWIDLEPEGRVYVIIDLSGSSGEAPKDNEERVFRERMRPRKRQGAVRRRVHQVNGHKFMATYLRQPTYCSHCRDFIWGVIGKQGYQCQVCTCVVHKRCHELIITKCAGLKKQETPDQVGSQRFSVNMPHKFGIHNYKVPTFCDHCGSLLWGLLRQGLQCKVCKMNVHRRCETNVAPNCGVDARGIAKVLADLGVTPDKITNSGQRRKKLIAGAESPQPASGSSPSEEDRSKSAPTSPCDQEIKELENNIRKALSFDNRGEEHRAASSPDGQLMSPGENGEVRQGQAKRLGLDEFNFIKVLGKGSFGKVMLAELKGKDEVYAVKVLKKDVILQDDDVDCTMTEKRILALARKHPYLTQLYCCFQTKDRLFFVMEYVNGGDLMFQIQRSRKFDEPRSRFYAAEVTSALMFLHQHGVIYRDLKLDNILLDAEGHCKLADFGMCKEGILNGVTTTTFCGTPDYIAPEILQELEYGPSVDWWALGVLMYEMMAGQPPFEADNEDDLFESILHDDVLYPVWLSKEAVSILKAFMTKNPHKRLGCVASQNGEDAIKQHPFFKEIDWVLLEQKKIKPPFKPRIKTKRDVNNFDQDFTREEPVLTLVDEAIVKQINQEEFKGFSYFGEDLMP
How it was run: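 PKC epsilon at 10 ng/ml final was preincubated 30 min at room temperature with compound in HEPES pH 7.4 with DTT and Triton X-100. ATP/protein substrate was then added in buffer with MgCl2 and CaCl2 for 80 min. The reaction was stopped with EDTA, phosphorylation was detected by fluorescence polarization with rhodamine tracer and anti-phosphoserine antibody, and IC50 values came from curve fits.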

T1 sequence (O75116 11-552 limits assumed): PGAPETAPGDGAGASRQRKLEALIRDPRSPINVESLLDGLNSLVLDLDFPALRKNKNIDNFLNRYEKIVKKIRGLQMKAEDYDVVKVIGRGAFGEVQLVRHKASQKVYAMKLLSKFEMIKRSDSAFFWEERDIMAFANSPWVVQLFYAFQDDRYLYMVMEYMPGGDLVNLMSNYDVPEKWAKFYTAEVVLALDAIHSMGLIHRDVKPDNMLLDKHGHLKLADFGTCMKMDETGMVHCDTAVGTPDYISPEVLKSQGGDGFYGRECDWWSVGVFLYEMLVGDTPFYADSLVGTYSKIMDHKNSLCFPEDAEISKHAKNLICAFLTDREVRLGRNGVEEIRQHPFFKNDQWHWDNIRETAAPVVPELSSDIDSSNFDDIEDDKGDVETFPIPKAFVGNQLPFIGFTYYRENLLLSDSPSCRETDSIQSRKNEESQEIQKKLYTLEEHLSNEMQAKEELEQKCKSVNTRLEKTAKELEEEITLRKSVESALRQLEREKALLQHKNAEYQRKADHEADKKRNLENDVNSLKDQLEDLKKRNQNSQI

SMILES | IC50 (human ROCKα/ROCKII mix) [µM] | IC50 (PKC epsilon) [µM]
CN(C)CCNC(=O)CC(N)c1ccc(C(=O)Nc2ccncc2)cc1 (stereo not shown) [Compound 174, 4-[1-amino-2-(2-dimethylamino-ethylcarbamoyl)-ethyl]-N-pyridin-4-yl-benzamide] | 0.05 to 0.5 | 0.5 to 5
CC(=O)NCCNC(=O)CC(N)c1ccc(C(=O)Nc2ccncc2)cc1 (stereo not shown) [Compound 175, 4-[2-(2-acetylamino-ethylcaramoyl)-1-amino-ethyl]-N-pyridin-4-yl-benzamide] | 0.05 to 0.5 | 0.5 to 5
CS(=O)(=O)NCCNC(=O)CC(N)c1ccc(C(=O)Nc2ccncc2)cc1 (stereo not shown) [Compound 176, 4-[1-amino-2-(2-methanesulfonylamino-ethylcarbamoyl)-ethyl]-N-pyridin-4-yl-benzamide] | 0.05 to 0.5 | 0.5 to 5
N#CCCN(C(=O)CC(N)c1ccc(C(=O)Nc2ccncc2)cc1)C1CC1 (stereo not shown) [Compound 178, 4-{1-amino-2-[(2-cyano-ethyl)-cyclopropyl-carbamoyl]-ethyl}-N-pyridin-4-yl-benzamide] | 0.5 to 5 | 5 to 50
CN(CCO)C(=O)CC(N)c1ccc(C(=O)Nc2ccncc2)cc1 (stereo not shown) [Compound 179, 4-{1-amino-2-[(2-hydroxy-ethyl)-methyl-carbamoyl]-ethyl}-N-pyridin-4-yl-benzamide] | 0.05 to 0.5 | 0.5 to 5
COCCNC(=O)CC(N)c1ccc(C(=O)Nc2ccncc2)cc1 (stereo not shown) [Compound 180, 4-[1-amino-2-(2-methoxy-ethylcarbamoyl)-ethyl]-N-pyridin-4-yl-benzamide] | 0.05 to 0.5 | 0.5 to 5
COCC(C)NC(=O)CC(N)c1ccc(C(=O)Nc2ccncc2)cc1 (stereo not shown) [Compound 181, 4-[1-amino-2-(2-methoxy-1-methyl-ethylcarbamoyl)-ethyl]-N-pyridin-4-yl-benzamide] | 0.05 to 0.5 | 0.5 to 5
COC(=O)C(C)NC(=O)CC(N)c1ccc(C(=O)Nc2ccncc2)cc1 (stereo not shown) [Compound 182] | 0.05 to 0.5 | 0.5 to 5
CONC(=O)CC(N)c1ccc(C(=O)Nc2ccncc2)cc1 (stereo not shown) [Compound 183, 4-(1-amino-2-methoxycarbamoyl-ethyl)-N-pyridin-4-yl-benzamide] | 0.05 to 0.5 | 0.5 to 5
NC(CC(=O)NCC1CCCO1)c1ccc(C(=O)Nc2ccncc2)cc1 (stereo not shown) [Compound 184, 4-{1-amino-2-[(tetrahydro-furan-2-ylmethyl)-carbamoyl]-ethyl}-N-pyridin-4-yl-benzamide] | 0.05 to 0.5 | 0.5 to 5
NC(CC(=O)NC1CCN(Cc2ccccc2)CC1)c1ccc(C(=O)Nc2ccncc2)cc1 (stereo not shown) [Compound 200, 4-[1-amino-2-(1-benzyl-piperidin-4-ylcarbamoyl)-ethyl]-N-pyridin-4-yl-benzamide] | 0.05 to 0.5 | 0.5 to 5
Cc1cccc(CN2CCC(NC(=O)CC(N)c3ccc(C(=O)Nc4ccncc4)cc3)CC2)c1 (stereo not shown) [Compound 201, 4-{1-amino-2-[1-(3-methyl-benzyl)-piperidin-4-ylcarbamoyl]-ethyl}-N-pyridin-4-yl-benzamide] | 0.05 to 0.5 | 0.5 to 5
Cc1ccc(CN2CCC(NC(=O)CC(N)c3ccc(C(=O)Nc4ccncc4)cc3)CC2)s1 (stereo not shown) [Compound 202] | 0.05 to 0.5 | 0.5 to 5
NC(CC(=O)NCc1ccccc1)c1ccc(C(=O)Nc2ccncc2)cc1 (stereo not shown) [Compound 213, 4-(1-Amino-2-benzylcarbamoyl-ethyl)-N-pyridin-4-yl-benzamide] | 0.05 to 0.5 | 0.5 to 5
CC(NC(=O)CC(N)c1ccc(C(=O)Nc2ccncc2)cc1)c1ccccc1 (stereo not shown) [Compound 215, 4-[1-Amino-2-(1-phenyl-ethylcarbamoyl)-ethyl]-N-pyridin-4-yl-benzamide] | 0.05 to 0.5 | 0.5 to 5
CC[C@@H](NC(=O)CC(N)c1ccc(C(=O)Nc2ccncc2)cc1)c1ccccc1 (stereo partly drawn) [Compound 216, 4-[1-Amino-2-(1-(R)-phenyl-propylcarbamoyl)-ethyl]-N-pyridin-4-yl-benzamide] | 0.05 to 0.5 | 0.5 to 5
CC[C@H](NC(=O)CC(N)c1ccc(C(=O)Nc2ccncc2)cc1)c1ccccc1 (stereo partly drawn) [Compound 217, 4-[1-Amino-2-(1-(S)-phenyl-propylcarbamoyl)-ethyl]-N-pyridin-4-yl-benzamide] | 0.05 to 0.5 | 0.5 to 5

Source: patent US20100168102A9, “Amide Derivatives as Kinase Inhibitors” (Devgen NV, priority 2005, published 2010)
